The nature of data set [1]: Antiinflammatory activity in RBL2H3 cells assessed as inhibition of degranulation. In kind it is functional, cell-based. The settings on record: Rattus norvegicus, RBL-2H3.
The test system of data set [2] is RAW264.7. The data set can be described thus: Cytotoxicity against mouse RAW264.7 cells assessed as cell viability at 20 uM after 24 hrs by MTS assay. The settings on record: raw264.7, 24 h. The format is cell-based. For orientation: Tetrazolium dyes change colour on reduction, which living cells bring about.
In data set [3] the test system is RAW264.7. In words: Antiinflammatory activity in mouse RAW264.7 cells assessed as inhibition of LPS-stimulated nitric oxide production after 18 hrs by Griess assay. The format is functional, cell-based. The settings on record: RAW264.7, 18 h. For orientation: The Griess reaction detects nitrite, a stable product of nitric oxide.
The subject of data set [4] is RAW264.7. In words: Antiinflammatory activity in mouse RAW264.7 cells assessed as inhibition of LPS-stimulated nitric oxide production at 20 uM after 18 hrs by Griess assay relative to control. The format is functional. The conditions noted are these: RAW264.7, 18 h.
For data set [5], the system named is RAW264.7. The data set can be described thus: Antiinflammatory activity in mouse RAW264.7 cells assessed as inhibition of LPS-stimulated nitric oxide production at 2 uM after 18 hrs by Griess assay relative to control. In kind it is functional. The conditions noted are these: RAW264.7, 18 h.
For data set [6], the system named is RAW264.7. The data set can be described thus: Cytotoxicity against mouse RAW264.7 cells assessed as cell viability at 20 uM after 24 hrs by MTS assay. The settings on record: raw264.7, 24 h.

SMILES strings stand for the structures.

Consider ten molecules from ChEMBL document CHEMBL3098018, “Synthesis of licochalcone analogues with increased anti-inflammatory activity” (Bioorg Med Chem Lett, 2014).

With `COc1c(/C=C/C(=O)c2ccc(O)cc2)ccc(O)c1CC=C(C)C`, the IC50 (commonly the point on the concentration scale where inhibition reaches its midpoint) in data set [1] worked out at 24 µM.
As to `COc1c(/C=C/C(=O)c2ccc(O)cc2)ccc(O)c1O`, in the data set on RAW264.7 [2], the Activity result is listed as “Non-toxic”. Besides, the values for the IC50 (in the data set with RAW264.7 [3]; in data set [1]) were 9.94 µM and greater than 30 µM, respectively. Moreover, the inhibition – broadly, the relative decrease from the control value, in per cent – at 20 µM in the data set with RAW264.7 [4] was determined as 69.6%. Moreover, in the data set on RAW264.7 [5], the inhibition at 2 µM stood at 17.2%.
As for `C=C(C)C(C)c1cc(C(=O)/C=C/c2ccc(O)c(O)c2OC)ccc1O` (stereo not drawn), the Activity result in the data set on RAW264.7 [2] and with RAW264.7 [6] was “Toxic” throughout. Also, the IC50 in the data set on RAW264.7 [3] amounted to 4.95 µM. The inhibition at 20 µM in the data set on RAW264.7 [4] turned out to be 94.3%. In addition, the inhibition at 2 µM in the data set with RAW264.7 [5] was 56.5%.
Regarding `COc1c(/C=C/C(=O)c2ccc(O)cc2O)ccc(O)c1O`, the Activity result in the data set with RAW264.7 [2] is listed as “Non-toxic”. Also, the IC50 in the data set on RAW264.7 [3] was determined as 4.72 µM. In addition, in the data set on RAW264.7 [4], the inhibition at 20 µM came to 96.5%. Further, the inhibition at 2 µM in the data set on RAW264.7 [5] amounted to 71.1%.
As for `COc1c(/C=C/C(=O)c2ccc(O)c(O)c2)ccc(O)c1O`, the Activity entry in the data set with RAW264.7 [2] is listed as “Non-toxic”. Further, the IC50 in the data set with RAW264.7 [3] came out at 10.1 µM. In addition, the inhibition at 20 µM in the data set on RAW264.7 [4] stood at 92.5%. The inhibition at 2 µM in the data set with RAW264.7 [5] is -6%.
Take `C=CC(C)(C)c1cc(C(=O)/C=C/c2ccc(O)c(O)c2OC)ccc1O`: the Activity entry in the data set with RAW264.7 [2] and in the data set with RAW264.7 [6] was “Toxic” in each case. The IC50 with RAW264.7 [3] stood at 2.37 µM. Besides, the inhibition at 20 µM in the data set with RAW264.7 [4] worked out at 96.1%. Also, the inhibition at 2 µM with RAW264.7 [5] came out at 75.9%.
Turning to `COc1cc(O)ccc1/C=C/C(=O)c1ccc(O)cc1` [ECHINATIN], in data set [1], the IC50 is greater than 30 µM.
Same read-out and setting: the figure for `O=C(/C=C/c1ccc(O)cc1)c1ccc(O)cc1O` [ISOLIQUIRITIGENIN] is greater than 30 µM; for `C=CC(C)(C)c1cc(/C=C/C(=O)c2ccc(O)cc2)c(OC)cc1O` [LICOAGROCHACONE A] it is 17 µM.
In the case of `COc1c(/C=C/C(=O)c2ccc(O)c(CC=C(C)C)c2)ccc(O)c1O` [LICOCHALCONE D], the Activity entry in the data set on RAW264.7 [2] and in the data set with RAW264.7 [6] was “Toxic” throughout. For the same molecule, the results for the IC50 (with RAW264.7 [3]; in data set [1]) were 4.85 µM and 21 µM, respectively. Also, the inhibition at 20 µM in the data set on RAW264.7 [4] was found to be 95.4%. In addition, the inhibition at 2 µM in the data set on RAW264.7 [5] came out at 57.8%.
